From patent publication US20090131513A1, “ANTI-INFLAMMATORY MODALITIES” (Novogen Research Pty Ltd., priority 2005, published 2009)

Tests used:
[1] = test system: NO synthesis in mouse macrophage cell line RAW 264.7; assay: Inhibition of nitric oxide synthesis (Griess reaction); format: cell-based; conditions: 10 μM
Experimental: Exposure of various cells (e.g. macrophages and smooth muscle cells) to bacterial LPS and proinflammatory cytokines induces iNOS which generates NO. NO production can be indirectly quantified by measurement of nitrite (NO2—), a stable breakdown product of NO. The mouse macrophage cell line RAW 264.7 was cultured in DMEM supplemented with FCS, 2 mM glutamine and 50 U/ml penicillin/streptomycin. Cells were treated with either test compound at 10 μM (in 0.125% DMSO) or vehicle alone, together with 10 ng/ml LPS. After incubation for 24 hrs, culture media was collected and analysed immediately for NO concentration using the Griess reaction (Eigler et al. 1995).

[2] = test system: contractile response of the aortic ring to noradrenaline; assay: Vasodilatory activity in the rat aortic ring assay; set-up: species or system rat (Sprague-Dawley); conditions: test compound 1 μg/ml
Experimental: The vasodilatory capacity of test compounds was examined ex vivo using the rat aortic ring assay.
Male Sprague-Dawley rats (250±50 g) were euthanized with 80% CO2 and 20% O2. The thoracic aorta was excised and quickly mounted in organ-baths as described (Chin-Dusting et al. 2001). Full concentration-contractile curves were obtained to noradrenaline ([…]) with and without test compounds delivered at a concentration of 1 μg/ml. Experiments were repeated in n=5 different rings from 5 different animals. Only one compound at any one concentration was tested on any one ring from any one animal. Sigmoidal dose response curves were fitted for the data and the logEC50 calculated (Prism 4, GraphPad Software). The difference in these values between the presence and absence of test compound was calculated using a two-tailed paired t test. The effects of β-oestrodiol and vehicle alone were examined as a positive and negative control respectively.

[3] = Stability of formulation in CMC 0.1%; format: physicochemical; conditions: seven day period, 4° C., 25° C. and 40° C.
Experimental: (§1) The formulation of Compound 1 in CMC 0.1% was stable over a seven day period at both 4° C., 25° C. and 40° C. Fresh batches of Compound 1 were supplied after day seven. Bodyweights were measured immediately before administration, then at day eight and again at culling on day 12. All rats were observed daily for signs of toxicity throughout the experimental period. At necropsy, gross examination of the external surface of the body, all orifices and the thoracic and abdominal cavities and their contents was carried out. Liver, kidney, adrenals, spleen and gonads were weighed. Terminal hematology, serum biochemistry and histology of the liver, spleen and bone marrow was done.

Sprague Dawley rats = assay: Oral toxicity of Compound 1 administered daily for 11 days; format: in vivo; conditions: 300 mg/kg and 1000 mg/kg oral daily for 11 days in CMC 0.1%
Experimental: Oral toxicity of Compound 1 when administered daily for 11 days was investigated. Compound 1 in CMC 0.1% as administered at the very high doses of 300 mg/kg and the limit dose of 1000 mg/kg to groups of four Sprague Dawley rats (two of each gender). Vehicle was administered to a third group.
as §1

[4] = test system: AA-induced ear inflammation; assay: Murine ear inflammation induced by arachidonic acid; format: in vivo, mice (BALB/c); conditions: for Increase in ear thickness (mean ± SD, ×0.01 mm): 25 mg/kg i/p, 1 hr post-AA application
From the text: Compounds were examined for their ability to inhibit ear swelling in mice induced by the topical application of arachidonic acid (AA). The inflammatory response due AA, the immediate precursor of the eicosanoids, is due to formation of AA metabolites via both the cyclooxygenase (COX) and lipoxygenase (LOX) pathways (Young et al. 1984). AA induces an increase in both PGE2 and LTC4 synthesis which precedes the increase in ear thickness (Opas et al. 1985; Chang et al. 1986).
Female BALB/c mice (ARC, WA, Australia), weighing 15-21 g were injected with Compound 2 delivered in polyethylene glycol (PEG) 400:phosphate buffered saline (PBS) 1:1 intraperitoneally (i/p) at a dose of 25 mg/kg either 30 min prior to or immediately before the application of AA to the ears. Mice were anaesthetized using isoflurane and baseline thickness of both ears was measured using a spring micrometer. Each mouse received a total of 20 μL of AA in ethanol (50 mg/ml) applied to the inner and outer surfaces of each pinna (i.e. 0.5 mg AA per ear). Mice were anaesthetized again to remeasure the ears at 1 hr post-AA application.
The difference in ear swelling pre- and post-application of AA for each ear was calculated, and the average for the two ears of each mouse calculated. The difference in mean swelling of each test group compared to the group given vehicle alone was calculated using a two-tailed unpaired t test (Prism 4, GraphPad Software).

female BALB/c mice = assay: Absence of gastrointestinal toxicity, gavage for 10 days; format: in vivo; conditions: 5 mg/kg via gavage for 10 days
Experimental: Compound 2 at 5 mg/kg (n=3) or vehicle (PEG 400:PBS1:1; n=2) was administered via gavage to female BALB/c mice for 10 days. […] Histology of cecum and colon were normal.
The diastereoisomeric mixture of Compounds 3a and 3b in PEG 400:PBS1:1 was administered to 7 week old female BALB/c mice (n=8) by gavage at 20 mg/kg daily for 10 days. There was no vehicle control group for comparison.
Compound 4 at 5 mg/kg (n=3) or vehicle (n=2, PEG:PBS 1:1) was administered via gavage to female BALB/c mice for 10 days. […] Histology of cecum and colon were normal.

[5] = test system: inflammed rat air pouches (serum-treated zymozan); assay: Rat air pouch assay; format: in vivo, rats (Dark Agouti); conditions: At 1 mM application
NFκB promoter activity = assay: Inhibition of NFκB promoter activity (β-lactamase reporter) in TNFα-stimulated THP-1 cells; format: cell-based, human; conditions: 5 h
Experimental: Human macrophage THP-1 cells, modified to include the β-lactamase reporter gene, were seeded into wells of a 96-well plate (50×10^3 cells/well) in the presence of RPMI 1640 medium (70 μl). TNFα (7.5 ng/ml) and human sera (final concentration of 20%) were added to each well. Plates were incubated for 5 h at 37° C. to allow for NFkB-stimulated β-lactamase production. LiveBLAzer™ FRET B/G Substrate (CCF4-AM) was then added to assay for β-lactamase activity. Once CCFA-AM enters a cell, it is converted to negatively charged CCF4 by endogenous esterases. Excitation of this substrate at 409 nm leads to efficient FRET between the coumarin and fluorescein moieties, resulting in a green fluorescence detectable at 530 nm. The presence of β-lactamase leads to cleavage of CCF4 and results in a loss of FRET, resulting in a robust blue fluorescent signal detectable at 460 nm. Thus, activity of beta-lactamase (a marker of NFkB-promoter activity) is measured as a product to substrate ratio (blue/green fluorescence ratio: 460 nm/530 nm).

Compound | NO synthesis, direction of effect in words [1] | contractile response (logEC50) of the aortic ring to noradrenaline compared with vehicle [2] | stability of the formulation [3] | evidence of toxicity (Sprague Dawley rats) | Increase in ear thickness (mean ± SD, ×0.01 mm) [4] [×0.01 mm] | adverse clinical signs (female BALB/c mice) | body weight changes versus vehicle (female BALB/c mice) | gross pathological changes at necropsy (female BALB/c mice) | histology of cecum and colon (female BALB/c mice) | number of polymorphs in the tissue sections, in words [5] | inhibition of NFκB compared to vehicle control (NFκB promoter activity) | AA-induced ear inflammation / ear thickness compared with vehicle, in words ([4]; mouse, in vivo)
O=C1c2ccc(O)c(Br)c2OCC1c1ccc(O)cc1 (stereo not drawn) [Compound 1, 3-(4-hydroxyphenyl)-7-hydroxy-8-bromo-chroman-4-one] | inhibited NO synthesis | significantly inhibited | stable | no evidence of toxicity of any kind | 9.5 ± 2.3 |  |  |  |  |  |  | 
O=C1c2cc(Cl)c(O)cc2OCC1c1ccc(O)cc1 (stereo not drawn) [Compound 4] | induced it |  |  |  | 9.2 ± 3.6 | no adverse clinical signs | similar | no gross pathological changes | normal | suppressed the number of polymorphs |  | 
Oc1ccc(C2COc3c(ccc(O)c3O)C2O)cc1 (stereo not drawn) [Compound 2] | induced it |  |  |  | 6.5 ± 2.9 | no adverse clinical signs | similar | no gross pathological changes | normal | suppressed the number of polymorphs | significantly (p<0.001) inhibited | significant reduction in ear thickness
